From patent US8889699B2, “5-fluorouracil derivative” (Delta-Fly Pharma, Inc., priority 2009, dated 2014)
Like-named read-outs stand apart in the source and are kept apart here.

Biological target: T1, DPD (Rattus norvegicus, UniProt O89000)
T1 construct: the obtained supernatant was used as a DPD enzyme solution or an OPRT enzyme solution; from tissue; host or cells: liver of 8-week old SD rat; 105,000 g supernatant of homogenate
T1 sequence (O89000 1-1025): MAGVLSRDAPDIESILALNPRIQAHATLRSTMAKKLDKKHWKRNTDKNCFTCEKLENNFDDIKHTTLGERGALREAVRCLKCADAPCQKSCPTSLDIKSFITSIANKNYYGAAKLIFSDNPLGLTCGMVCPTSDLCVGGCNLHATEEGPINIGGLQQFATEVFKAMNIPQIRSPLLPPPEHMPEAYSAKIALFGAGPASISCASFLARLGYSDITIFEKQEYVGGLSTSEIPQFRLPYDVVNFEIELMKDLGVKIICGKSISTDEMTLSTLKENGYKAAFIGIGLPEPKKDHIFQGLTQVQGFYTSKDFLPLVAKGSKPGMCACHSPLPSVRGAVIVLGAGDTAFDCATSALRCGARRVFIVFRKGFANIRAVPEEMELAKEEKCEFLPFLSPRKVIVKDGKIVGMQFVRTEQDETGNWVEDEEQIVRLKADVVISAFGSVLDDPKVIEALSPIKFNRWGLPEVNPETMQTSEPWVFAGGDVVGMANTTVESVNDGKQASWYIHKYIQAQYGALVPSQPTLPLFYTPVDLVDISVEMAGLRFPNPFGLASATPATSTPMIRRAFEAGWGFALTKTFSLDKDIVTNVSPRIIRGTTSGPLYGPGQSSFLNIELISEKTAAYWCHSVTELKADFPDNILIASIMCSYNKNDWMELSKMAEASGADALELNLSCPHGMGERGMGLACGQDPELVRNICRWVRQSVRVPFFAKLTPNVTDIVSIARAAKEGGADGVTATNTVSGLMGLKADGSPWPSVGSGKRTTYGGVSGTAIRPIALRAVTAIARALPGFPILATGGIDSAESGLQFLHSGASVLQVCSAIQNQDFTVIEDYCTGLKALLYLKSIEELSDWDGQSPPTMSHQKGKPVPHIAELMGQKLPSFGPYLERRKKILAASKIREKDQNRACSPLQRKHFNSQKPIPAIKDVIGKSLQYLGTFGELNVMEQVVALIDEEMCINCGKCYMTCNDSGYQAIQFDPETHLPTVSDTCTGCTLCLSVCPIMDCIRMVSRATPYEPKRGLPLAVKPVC
Assay: DPD inhibitory action in vitro (enzyme reaction, tritium-labeled 5-FU as substrate)
Assay type: biochemical
Method: The resulting product was diluted to concentrations of 1 mM, 100 μM, 10 μM, and 1 μM with a 10 mM potassium phosphate buffer solution (pH 6.0), thereby obtaining Test Liquids 1. The obtained Test Liquids 1 were separately added to the enzyme reaction solution described below to give final concentrations of 200 μM, 20 μM, 2 μM, and 0.2 μM. • (b) Test liquid preparation (2): As a DPD inhibitor, 5-chloro-2,4-dihydroxypyridine (CDHP; gimeracil) was dissolved to a concentration of 10 mM in a 10 mM potassium phosphate buffer solution (pH 6.0). The resulting product was diluted to concentrations of 1 mM, 100 μM, 10 μM, and 1 μM, thereby obtaining Test Liquids 2. The obtained Test Liquids 2 were separately added to the enzyme reaction solution to give final concentrations of 200 μM, 20 μM, 2 μM, and 0.2 μM. • (c) Test liquid preparation (3): As an OPRT inhibitor, citrazinic acid (Citra. A.) was dissolved to a concentration of 10 mM in 20 mM trishydroxyaminomethane-hydrochloric buffer solution (pH 8.0). Thereafter, the resulting product was diluted to concentrations of 1 mM, 100 μM, and 10 μM with a 10 mM potassium phosphate buffer solution, thereby obtaining Test Liquids (3). The obtained Test Liquids 3 were separately added to the enzyme reaction solution to give final concentrations of 200 μM, 20 μM, and 2 μM. • (d) Preparation of enzyme solution: The liver of an 8-week old SD rat was used as a DPD enzyme source, while human tumor cells that had been transplanted into a nude mouse and proliferated therein were used as an OPRT enzyme source. Specifically, immediately after a rat liver or successively-transplanted human tumor cells were extracted, a 50-mM tris-hydrochloric acid buffer solution (pH 8.0) containing 0.25 M saccharose, 5 mM magnesium chloride, and 1 mM dithreitol was added thereto to a concentration of 25% (w/v) and homogenized. Thereafter, ultracentrifugation was performed at 105,000 g for 60 minutes, and the obtained supernatant was used as a DPD enzyme solution or an OPRT enzyme solution. • (e) Enzyme reaction: A DPD enzyme reaction was carried out in accordance with the method of Tatsumi et al. (Gann, 78: 748-755 (1987)) using 5-FU labeled with tritium as a substrate. An OPRT enzyme reaction was carried out in accordance with the method of Shirasaka et al. (Cancer Res., 53: 4004-4009 (1993)) using 5-FU labeled with tritium as a substrate. Then, the activity of a control group (with no test compound) and test compound groups was measured. The percent inhibition of the test compound relative to DPD or OPRT was calculated using the following formula: [1-(the enzyme activity with the test compound/the enzyme activity of the control group)]×100(%).
The resulting product was diluted to concentrations of 1 mM, 100 μM, 10 μM, and 1 μM with a 10 mM potassium phosphate buffer solution (pH 6.0), thereby obtaining Test Liquids 1. The obtained Test Liquids 1 were separately added to the enzyme reaction solution described below to give final concentrations of 200 μM, 20 μM, 2 μM, and 0.2 μM. • (b) Preparation of enzyme solution: The liver of an 8-week old SD rat was used as a DPD enzyme source, while human tumor cells that had been transplanted into a nude mouse and proliferated therein were used as an OPRT enzyme source. Specifically, immediately after a rat liver or successively-transplanted human tumor cells were extracted, a 50-mM tris-hydrochloric acid buffer solution (pH 8.0) containing 0.25 M saccharose, 5 mM magnesium chloride, and 1 mM dithreitol was added thereto to a concentration of 25% (w/v) and homogenized. Thereafter, ultracentrifugation was performed at 105,000 g for 60 minutes, and the obtained supernatant was used as a DPD enzyme solution or an OPRT enzyme solution. • (c) Enzyme reaction: A DPD enzyme reaction was carried out in accordance with the method of Tatsumi et al. (Gann, 78: 748-755 (1987)) using 5-FU labeled with tritium as a substrate. […]

- inhibition at 0.2 µM (0.2 μM, Table 2, read-out: DPD Inhibition (%)): 44.8%
- inhibition at 2 µM (2 μM, Table 2, read-out: DPD Inhibition (%)): 85.1%
- DPD Inhibitory Activity: Activity (Conc. 0.2 μM, Table 1): 0.597 nmol/mL/min
- inhibition at 0.2 µM (Conc. 0.2 μM, Table 1, read-out: DPD Inhibitory Activity: Inhibition): 40.8%
- DPD Inhibitory Activity: Activity (Conc. 2 μM, Table 1): 0.195 nmol/mL/min
- inhibition at 2 µM (Conc. 2 μM, Table 1, read-out: DPD Inhibitory Activity: Inhibition): 80.7%
- DPD Inhibitory Activity: Activity (Conc. 20 μM, Table 1): 0.074 nmol/mL/min
- inhibition at 20 µM (Conc. 20 μM, Table 1): 92.7%
- DPD Inhibitory Activity: Activity (Conc. 200 μM, Table 1): 0.106 nmol/mL/min
- inhibition at 200 µM (Conc. 200 μM, Table 1): 89.5%
Structure (SMILES): Oc1cc(O)c(Cl)cn1 [CDHP, 5-chloro-2,4-dihydroxypyridine, reference compound]
